Measurements published in patent US4302448A, “Secretin preparations with intensified and protracted action, process for their manufacture, their use as well as dihydroxybenzoyl-L-tyrosine” (Hoechst Aktiengesellschaft, priority 1979, dated 1981).
Where a SMILES comes first, the peptide text is derived from it. Side-chain parts run from the residue outwards. The star is where a group is joined. Cbz = O=C(OCc1ccccc1)*

System: Pancreatic juice secretion of the rat
Experiment: Pancreatic juice secretion of the rat after subcutaneous administration of secretin with depot bodies
Assay type: in vivo
Conditions: for Δ% vs. control (percentage by which the pancreatic secretion is above the basal secretion after 5 hours) / Rel. Intensity of effect over 5 hours (total pancreatic juice secretion over 5 hours as compared with control): rat, subcutaneous, 5 CU/kg secretin + 10 mg depot body/animal; for Δ% vs. control (percentage by which the pancreatic secretion is above the basal secretion after 5 hours): control=100%, measure of depot effect; for Rel. Intensity of effect over 5 hours (total pancreatic juice secretion over 5 hours as compared with control): control (0.9% of NaCl)=1
Method: Secretin preparations for subcutaneous application which contained the depot bodies specified in the following Table were tested in animal experiments. In the experimental procedure chosen, 5 to 8 male rats weighing 300 to 500 g each are administered subcutaneously 5 CU/kg of secretin (CU means clinical unit) and 10 mg of the depot body to be tested each in aqueous solution or suspension.
The animals remain without food for 18 hours prior to the test, but they are given water ad libitum. Under urethane anaesthesia (5 ml/kg i.m. of 25% urethane) the abdomen is opened by median section after tracheotomy, and the pylorus is ligated. The ductus choledochus is tied off in its proximal part near the porta hepatis, and the bile is led into the duodenum via a polyethylene tube of a diameter of […]. A cannula or catheter is inserted into the distal part of the bile duct, into which the numerous pancreatic ducts open, immediately before it opens into the duodenum, and the volume of the secretion running off is measured in 60 minute intervals. Following a preliminary run of 60 minutes the preparations are administered.
L means the compound known from literature and characterized by the melting point, optionally UV, IR or NMR. A to C relate to the preparation according to Example 1, process A to C. These compounds were characterized by ultimate analysis. The third column indicates the percentage by which the pancreatic secretion is above the basal secretion after 5 hours (calculated on the control=100%). This value is a measure for the depot effect of the depot body tested. Column 4 indicates the intensification of the secretin effect, with the total pancreatic juice secretion having been given over 5 hours as compared with the control (0.9% of NaCl)=1.

Compound | Δ% vs. control (percentage by which the pancreatic secretion is above the basal secretion after 5 hours) | Rel. Intensity of effect over 5 hours (total pancreatic juice secretion over 5 hours as compared with control) | protracted and intensified action of secretin (in words) (subcutaneous secretin preparations with depot body)
O=C(NCCNC(=O)c1ccc(O)cc1O)c1ccc(O)cc1O [Bis-(2,4-dihydroxybenzoyl-)-diaminoethane] | 69% | 6.5 | –
Tris-(3-hydroxybenzoyl)-diethylene-triamine | 71% | 8.0 | –
Bis-(3,5-dihydroxybenzoyl)-diaminoethane | 79% | 6.1 | –
O=C(c1ccccc1)c1ccccc1O [2-Hydroxy-benzophenone] | 74% | 7.2 | –
NC(=O)c1cc(O)cc(O)c1 [3,5-Dihydroxybenzoic acid amide] | 34% | 6.2 | –
2,8-Dihydroxy-3-naphthoyl-diethanolamine | 77% | 9.1 | –
Tris-(4-hydroxybenzoyl)-diethylene-triamine | 68% | 7.8 | –
O=C(c1cc(Cl)ccc1O)N(CCO)CCO [2-Hydroxy-5-chloro-benzoic acid-diethanolamide] | 77% | 7.3 | –
O=C(O)c1cc(O)c(O)c(O)c1 [3,4,5-Trihydroxybenzoic acid] | 28% | 5.0 | –
NC(=O)c1ccccc1O [2-Hydroxy-benzoic acid amide] | 51% | 8.0 | –
Oc1cccc2cccnc12 [8-Hydroxyquinoline] | 37% | 4.7 | –
3,5-Dihydroxyphenylcarbonyl-ethylphenyl-3,5-dimethyl phosphate | 62% | 3.4 | –
Tris-(2-hydroxybenzoyl)-diethylene-triamine | 62% | 8.1 | –
O=C(NCCN(CCN(CCNC(=O)c1ccccc1O)C(=O)c1ccccc1O)C(=O)c1ccccc1O)c1ccccc1O [Tetra-(2-hydroxybenzoyl)-triethylene-tetramine] | 91% | 9.0 | –
O=C(NC(Cc1ccc(O)cc1)C(=O)N(CCO)CCO)c1cc(O)cc(O)c1 [3,5-Dihydroxybenzoyl-L-tyrosine-diethanolamide] | 76% | 7.6 | –
O=C(c1ccccc1)c1ccc(O)cc1O [2,4-Dihydroxy-benzophenone] | 163% | 9.1 | –
O=C(c1ccccc1)c1ccc(O)cc1 [4-Hydroxybenzophenone] | 70% | 6.7 | –
Tris-(2,8-dihydroxy-3-naphthoyl)-diethylene-triamine | 94% | 9.4 | –

Compound | Δ% vs. control (percentage by which the pancreatic secretion is above the basal secretion after 5 hours) | Rel. Intensity of effect over 5 hours (total pancreatic juice secretion over 5 hours as compared with control) | protracted and intensified action of secretin (in words) (subcutaneous secretin preparations with depot body)
NS(=O)(=O)c1cccc(NC(=O)c2ccccc2O)c1 [3-(2-Hydroxybenzoylamino)-benzene-sulfonamide] | 81% | 8.1 | –
O=C(O)c1cc(O)cc(O)c1 [3,5-Dihydroxybenzoic acid] | 25% | 6.6 | –
O=C(N[C@@H](Cc1ccc(O)cc1)C(=O)N[C@@H](Cc1ccc(O)cc1)C(=O)O)OCc1ccccc1 [Benzyloxycarbonyl-L-tyrosyl-L-tyrosine] (Cbz-Tyr-Tyr-OH) | 62% | 7.5 | –
O=C(NCCN(CCNC(=O)c1cc(O)cc(O)c1)C(=O)c1cc(O)cc(O)c1)c1cc(O)cc(O)c1 [Tris-(3,5-dihydroxybenzoyl-diethylene-triamine] | 79% | 8.6 | –
COC(=O)[C@H](CCCCNC(=O)[C@H](Cc1ccc(O)cc1)NC(=O)OCc1ccccc1)NC(=O)[C@H](Cc1ccc(O)cc1)NC(=O)OCc1ccccc1 [Nα,Nε-Bis-(benzyloxycarbonyl-L-tyrosyl)-L-lysine-methyl ester] (Cbz-Tyr-Lys([Tyr-Cbz])-OMe) | 93% | 8.2 | –
Bis-(benzyloxycarbonyl-L-tyrosine)-diaminoethane | 44% | 5.5 | –
O=C(c1ccccc1)c1ccc(O)c(O)c1O [2,3,4-Trihydroxy-benzophenone] | 109% | 9.1 | –
Oc1ccccc1 [Phenol] | 51% | 8 | clearly evident
Bis-(2-carboxybenzoyl-L-tyrosine)-diaminoethane | 48% | 6.3 | –
O=C(N[C@@H](Cc1ccc(O)cc1)C(=O)NCCCC[C@H](NC(=O)[C@H](Cc1ccc(O)cc1)NC(=O)OCc1ccccc1)C(=O)O)OCc1ccccc1 [Nα,Nε-Bis-(benzyloxycarbonyl-L-tyrosyl)-L-lysine] (Cbz-Tyr-Lys([Tyr-Cbz])-OH) | 48% | 7.0 | –
OCc1ccc(O)cc1 [4-Hydroxy-benzyl alcohol] | 12% | 1.3 | –
O=C(N[C@@H](Cc1ccc(O)cc1)C(=O)NCCCC[C@H](NC(=O)[C@H](Cc1ccc(O)cc1)NC(=O)c1cc(O)cc(O)c1)C(=O)N(CCO)CCO)c1cc(O)cc(O)c1 [Nα,Nε-Bis(3,5-dihydroxybenzoyl-L-tyrosyl)-L-lysine-diethanol-amide] | 86% | 8.8 | –
O=C(N[C@@H](Cc1ccc(O)cc1)C(=O)O)c1ccc(O)cc1O [2,4-Dihydroxybenzoyl-L-tyrosine] | 84% | – | –
Bis-(3,5-dihydroxybenzoyl-L-tyrosine)-diaminoethane | 58% | 7.0 | –
O=C(NCCO)c1ccc2ccccc2c1O [1-Hydroxy-2-naphthoic acid-ethanolamide] | 74% | 8.0 | –
O=C(O)c1cccc(O)c1 [3-Hydroxybenzoic acid] | 47% | 4.0 | –
O=S(=O)([O-])c1ccc(O)cc1.[Na+] [4-Hydroxybenzene-sulfonic acid-Na] | 18% | 2.7 | –
